{"source": "ChEMBL document CHEMBL1201862", "about": "“PubChem BioAssay data set” (2004)", "assay_in_all_cases": "DTP human tumour cell line panel, 48 h", "key": {"SNB-19": {"test_system": "SNB-19"}, "UACC-62": {"test_system": "UACC-62"}, "Hs-578T": {"test_system": "Hs-578T"}, "MDA-N": {"test_system": "MDA-N"}, "M14": {"test_system": "M14"}, "OVCAR-8": {"test_system": "OVCAR-8"}, "SN12C": {"test_system": "SN12C"}, "CCRF-CEM": {"test_system": "CCRF-CEM"}, "HCC 2998": {"test_system": "HCC 2998"}, "OVCAR-3": {"test_system": "OVCAR-3"}, "OVCAR-5": {"test_system": "OVCAR-5"}, "CAKI-1": {"test_system": "CAKI-1"}, "SR": {"test_system": "SR"}, "BT-549": {"test_system": "BT-549"}, "T47D": {"test_system": "T47D"}, "M19-MEL": {"test_system": "M19-MEL"}, "UO-31": {"test_system": "UO-31"}, "KM12": {"test_system": "KM12"}, "IGROV-1": {"test_system": "IGROV-1"}, "HCT-15": {"test_system": "HCT-15"}, "LOX IMVI": {"test_system": "LOX IMVI"}, "SNB-75": {"test_system": "SNB-75"}, "UACC-257": {"test_system": "UACC-257"}, "ACHN": {"test_system": "ACHN"}, "XF498": {"test_system": "XF498"}, "MDA-MB-435": {"test_system": "MDA-MB-435"}, "EKVX": {"test_system": "EKVX"}, "NCI-H23": {"test_system": "NCI-H23"}, "A549": {"test_system": "A549"}, "HOP-62": {"test_system": "HOP-62"}, "MDA-MB-231": {"test_system": "MDA-MB-231"}, "SK-OV-3": {"test_system": "SK-OV-3"}, "DU-145": {"test_system": "DU-145"}, "SK-MEL-2": {"test_system": "SK-MEL-2"}, "HCT-116": {"test_system": "HCT-116"}, "RPMI-8226": {"test_system": "RPMI-8226"}, "U-251": {"test_system": "U-251"}, "SK-MEL-5": {"test_system": "SK-MEL-5"}, "SF-539": {"test_system": "SF-539"}, "HOP-92": {"test_system": "HOP-92"}, "MOLT-4": {"test_system": "MOLT-4"}, "TK-10": {"test_system": "TK-10"}, "HOP-18": {"test_system": "HOP-18"}, "NCI/ADR-RES": {"test_system": "NCI/ADR-RES"}, "NCI-H522": {"test_system": "NCI-H522"}, "PC-3": {"test_system": "PC-3"}, "KM-20L2": {"test_system": "KM-20L2"}, "OVCAR-4": {"test_system": "OVCAR-4"}, "NCI-H460": {"test_system": "NCI-H460"}, "SK-MEL-28": {"test_system": "SK-MEL-28"}, "DMS-273": {"test_system": "DMS-273"}, "HL-60": {"test_system": "HL-60"}, "COLO 205": {"test_system": "COLO 205"}, "HT-29": {"test_system": "HT-29"}, "NCI-H226": {"test_system": "NCI-H226"}, "Malme-3M": {"test_system": "Malme-3M"}, "A498": {"test_system": "A498"}, "SF-268": {"test_system": "SF-268"}, "SW-620": {"test_system": "SW-620"}, "MCF7": {"test_system": "MCF7"}, "DLD-1": {"test_system": "DLD-1"}, "SNB-78": {"test_system": "SNB-78"}, "786-0": {"test_system": "786-0"}, "K562": {"test_system": "K562"}, "RXF 393": {"test_system": "RXF 393"}, "SF-295": {"test_system": "SF-295"}, "DMS-114": {"test_system": "DMS-114"}}, "note": "Where a name gives a salt, the structure may show the parent alone.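 48-hour exposure; five concentrations; linearly interpolated endpoints. GI50: concentration for 50% inhibition of growth.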 The source made the active and inactive calls. No stated cut-off is given here; in the data, active = GI50 up to about 1.1 µM and inactive = higher.", "data": [{"smiles": "CC(=O)N(C)c1ccc(Nc2cc(C)nc3ccc4nc[nH]c4c23)cc1", "note": "[ACODAZOLE HYDROCHLORIDE]", "values": [{"measurement": "GI50", "setting": "SNB-19", "result": "10.2 µM (inactive)"}, {"measurement": "GI50", "setting": "UACC-62", "result": "10.2 µM (inactive)"}, {"measurement": "GI50", "setting": "Hs-578T", "result": "9.14 µM (inactive)"}, {"measurement": "GI50", "setting": "MDA-N", "result": "10.5 µM (inactive)"}, {"measurement": "GI50", "setting": "M14", "result": "10.8 µM (inactive)"}, {"measurement": "GI50", "setting": "OVCAR-8", "result": "5.97 µM (inactive)"}, {"measurement": "GI50", "setting": "SN12C", "result": "7.21 µM (inactive)"}, {"measurement": "GI50", "setting": "CCRF-CEM", "result": "3.01 µM (inactive)"}, {"measurement": "GI50", "setting": "HCC 2998", "result": "10.3 µM (inactive)"}, {"measurement": "GI50", "setting": "OVCAR-3", "result": "8.63 µM (inactive)"}, {"measurement": "GI50", "setting": "OVCAR-5", "result": "12.1 µM (inactive)"}, {"measurement": "GI50", "setting": "CAKI-1", "result": "5.04 µM (inactive)"}, {"measurement": "GI50", "setting": "SR", "result": "3.29 µM (inactive)"}, {"measurement": "GI50", "setting": "BT-549", "result": "10 µM (inactive)"}, {"measurement": "GI50", "setting": "T47D", "result": "6.79 µM (inactive)"}, {"measurement": "GI50", "setting": "M19-MEL", "result": "8.97 µM (inactive)"}, {"measurement": "GI50", "setting": "UO-31", "result": "12.2 µM (inactive)"}, {"measurement": "GI50", "setting": "KM12", "result": "7.96 µM (inactive)"}, {"measurement": "GI50", "setting": "IGROV-1", "result": "12.4 µM (inactive)"}, {"measurement": "GI50", "setting": "HCT-15", "result": 23, "unit": "µM"}, {"measurement": "GI50", "setting": "LOX IMVI", "result": "5.15 µM (inactive)"}, {"measurement": "GI50", "setting": "SNB-75", "result": "9.33 µM (inactive)"}, {"measurement": "GI50", "setting": "UACC-257", "result": "12.7 µM (inactive)"}, {"measurement": "GI50", "setting": "ACHN", "result": "4.5 µM (inactive)"}, {"measurement": "GI50", "setting": "XF498", "result": "2.29 µM (inactive)"}, {"measurement": "GI50", "setting": "MDA-MB-435", "result": "8.51 µM (inactive)"}, {"measurement": "GI50", "setting": "EKVX", "result": "18.7 µM (inactive)"}, {"measurement": "GI50", "setting": "NCI-H23", "result": "10.2 µM (inactive)"}, {"measurement": "GI50", "setting": "A549", "result": "7.59 µM (inactive)"}, {"measurement": "GI50", "setting": "HOP-62", "result": "6.19 µM (inactive)"}, {"measurement": "GI50", "setting": "MDA-MB-231", "result": "13.6 µM (inactive)"}, {"measurement": "GI50", "setting": "SK-OV-3", "result": "10.5 µM (inactive)"}, {"measurement": "GI50", "setting": "DU-145", "result": "5.81 µM (inactive)"}, {"measurement": "GI50", "setting": "SK-MEL-2", "result": "10.8 µM (inactive)"}, {"measurement": "GI50", "setting": "HCT-116", "result": "4.55 µM (inactive)"}, {"measurement": "GI50", "setting": "RPMI-8226", "result": "8.07 µM (inactive)"}, {"measurement": "GI50", "setting": "U-251", "result": "8.09 µM (inactive)"}, {"measurement": "GI50", "setting": "SK-MEL-5", "result": "7.28 µM (inactive)"}, {"measurement": "GI50", "setting": "SF-539", "result": "7.38 µM (inactive)"}, {"measurement": "GI50", "setting": "HOP-92", "result": "2.55 µM (inactive)"}, {"measurement": "GI50", "setting": "MOLT-4", "result": "1.72 µM (inactive)"}, {"measurement": "GI50", "setting": "TK-10", "result": "13.6 µM (inactive)"}, {"measurement": "GI50", "setting": "HOP-18", "result": "12.4 µM (inactive)"}, {"measurement": "GI50", "setting": "NCI/ADR-RES", "result": "156 µM (inactive)"}, {"measurement": "GI50", "setting": "NCI-H522", "result": "7.38 µM (inactive)"}, {"measurement": "GI50", "setting": "PC-3", "result": "5.09 µM (inactive)"}, {"measurement": "GI50", "setting": "KM-20L2", "result": "11.9 µM (inactive)"}, {"measurement": "GI50", "setting": "OVCAR-4", "result": "11.7 µM (inactive)"}, {"measurement": "GI50", "setting": "NCI-H460", "result": "2.59 µM (inactive)"}, {"measurement": "GI50", "setting": "SK-MEL-28", "result": "15.1 µM (inactive)"}, {"measurement": "GI50", "setting": "DMS-273", "result": "9.38 µM (inactive)"}, {"measurement": "GI50", "setting": "HL-60", "result": "7.03 µM (inactive)"}, {"measurement": "GI50", "setting": "COLO 205", "result": "4.38 µM (inactive)"}, {"measurement": "GI50", "setting": "HT-29", "result": "11.3 µM (inactive)"}, {"measurement": "GI50", "setting": "NCI-H226", "result": "6.27 µM (inactive)"}, {"measurement": "GI50", "setting": "Malme-3M", "result": "7.64 µM (inactive)"}, {"measurement": "GI50", "setting": "A498", "result": "10.4 µM (inactive)"}, {"measurement": "GI50", "setting": "SF-268", "result": "8.11 µM (inactive)"}, {"measurement": "GI50", "setting": "SW-620", "result": "4.88 µM (inactive)"}, {"measurement": "GI50", "setting": "MCF7", "result": "3.66 µM (inactive)"}, {"measurement": "GI50", "setting": "DLD-1", "result": "19.4 µM (inactive)"}, {"measurement": "GI50", "setting": "SNB-78", "result": "14.4 µM (inactive)"}, {"measurement": "GI50", "setting": "786-0", "result": "4.81 µM (inactive)"}, {"measurement": "GI50", "setting": "K562", "result": "8.07 µM (inactive)"}, {"measurement": "GI50", "setting": "RXF 393", "result": "9.25 µM (inactive)"}, {"measurement": "GI50", "setting": "SF-295", "result": "14.1 µM (inactive)"}, {"measurement": "GI50", "setting": "DMS-114", "result": "7.08 µM (inactive)"}]}]}
